{"source": "patent US20150080475A1", "about": "“Memantine Protects Inflammation-Related Degeneration of Dopamine Neurons Through Inhibition of Over-Activated Microglia and Release of Neurotrophic Factors From Astroglia” (priority 2009, published 2015)", "key": {"DA neurons [1]": {"test_system": "DA neurons", "assay": "LPS-induced dopaminergic neurotoxicity in microglia-depleted neuron-glia cultures", "assay_type": "cell-based", "conditions": "microglia depleted by LME to <1%, LPS 7 days", "procedure": "To evaluate the influence of various kinds of glia contribute to effect of MMT on LPS-induced dopaminergic neurotoxicity, microglia-depleted Neuron-/glia Cultures were performed."}, "GDNF": {"test_system": "GDNF", "assay": "Western blot of GDNF protein in astroglial cells", "assay_type": "cell-based, rat", "conditions": "memantine 10 μM", "procedure": "GDNF mediated memantine-induced neurotrophic effects. Rat primary astroglia were exposed to 10 μM memantine for various time points ranging from 0 minute to 24 h. (FIG. 5A) Total RNA was extracted. […] (FIG. 5B) The ratio of densitometry values of GDNF and β-actin was analyzed and normalized to 0 min value. (FIG. 5C) Total protein of astroglial cells was extracted. Western blot analyses were performed with the antibody to GDNF. GAPDH was used as loading control. (FIG. 5D) The ratio of densitometry values of GDNF and GAPDH was analyzed and normalized to 0 min value. Values were expressed as mean±S.E.M. of three independent experiments. *p<0.05, **p<0.01, ***p<0.001, Bonferroni t-test vs 0 min for FIG. 5B and FIG. 5D; (FIG. 5E) Neuron-glia cultures were treated with either control goat IgG (isotype Ab), or goat anti-GDNF, combined with memantine (10 μM) treatment. DA uptake capacity was measured 7 days later. Results were expressed as a percentage of the vehicle-treated control cultures and represented mean±S.E.M. of three independent experiments performed in triplicate. *p<0.05, **p<0.01, ***p<0.001, Bonferroni's test vs control; #p<0.05, Bonferroni t-test vs memantine treated cultures.\nMixed-glia cultures were first prepared from brains of 1-day-old Fisher 344 rat pups, as described previously. Briefly, mechanically dissociated brain cells (5×10^7) were seeded onto 150-cm^2 culture flasks in Dulbecco's modified Eagle's medium containing 10% heat-inactivated FBS, 2 mM L-glutamine, 1 mM sodium pyruvate, 100 μM non-essential amino acids, 50 U/ml penicillin and 50 μg/ml streptomycin. The cultures were maintained at 37° C. in a humidified atmosphere of 5% CO2 and 95% air, and medium was replenished 4 days after the initial seeding. Upon reaching confluence (usually 12-14 days later), microglia were detached from astrocytes by shaking the flasks at a speed of 180 r.p.m. for 5 h. Astrocytes were then detached with trypsin-ethylenediaminetetraacetic acid (EDTA) and seeded in the same culture medium. […]"}, "TNF-α": {"test_system": "TNF-α", "assay": "TNF-α ELISA after LPS", "assay_type": "cell-based", "conditions": "4 h after LPS treatment", "procedure": "The production of TNF-α was measured with a commercial ELISA kit from R&D Systems. The PGE2 release was measured with a commercial ELISA kit from Cayman Chemical Company.\nNeuron-glia cultures were pretreated for 30 min with MMT (3 μM) or vehicle before LPS stimulation. […] Production of superoxide (30 min after LPS) and iROS (2 h after LPS) was decreased by MMT treatment (FIGS. 6A and 6B). […] The production of PGE2 in cultures pretreated with 3 and 10 μM MMT decreased by 23% and 27% respectively (FIG. 6E)."}, "astrocyte, and micrglia": {"test_system": "astrocyte, and micrglia", "assay": "BrdU cytogenesis test in rat primary midbrain neuron-glia cultures", "assay_type": "cell-based", "conditions": "10 μM MMT, 24 hours", "procedure": "Rat primary mesencephalic neuron-glia cultures seeded in a 24-well culture plate at density of 5×10^5 per well were treated with 10 μM MMT or its vehicle, and simultaneously with 1 μl Brdu seven days after seeding. 24 hours later, the cultures was fixed with 3.7% of PDF for GFAF, iba-1, and DAPI staining.\nIn addition to the pre-treatment experiments, similar studies using post-treatment designs were conducted to determine the efficacy of MMT. In these experiments, neuron-glia cultures were either treated with MMT (10 μM) and LPS (2.5 ng/ml) at the same time, or MMT was added 30, 60, 120 or 180 min after the addition of LPS. One week later, DA uptake of the culture was assayed."}, "DA neurons [2]": {"test_system": "DA neurons", "assay": "Neurotrophic effect in neuron-enriched, microglia-added and microglia-depleted cultures (DA uptake)", "assay_type": "cell-based, rat", "procedure": "Astrocytes, not micrglia, contribute to the neurotrophic effect of MMT. Neuron-enriched cultures were treated with vehicle and 1-10 μM MMT (FIG. 10A); 10% (5×10^4/well) of microglia were added back to neuron-enriched cultures and treated with 10 μM MMT (FIG. 10B); Depleted microglia cultures were treated with 10 μM MMT (FIG. 10C). ┌^3H┘ DA uptake was assayed 7 days after treatment. Values are mean±SEM of three independent experiments. *p<0.05, compared with corresponding vehicle-treated control cultures.\nIn addition to neuroprotection against LPS-induced neurotoxicity, MMT is found to have high potency of neurotrophic effect on DA neurons in rat primary mesencephalic neuron-glia cultures.\nMesencephalic neuron-glia cultures were seeded (5×10^5/well) in 24 well plates precoated with poly D-lysine. Thirty-six hours postseeding, 5-10 μM cytosine β-D-arabinofuranoside was added to the culture. After 2 days, the cytosine β-D-arabinofuranoside was removed and replaced with fresh media. Neuron-enriched cultures are 98% pure, as indicated by ICC staining with OX-42 and GFAP antibodies. Neuron-enriched cultures were treated 7 days post-seeding. For microglia add-back cultures, the microglia were plated on top of the neuron-enriched culture at 6 days postseeding, resulting in the addition of either 10% (500 μL of 1×10^5) or 20% (500 μL of 2×10^5) microglia. Cells were treated 7 days after the initial seeding of the neuron-enriched cultures."}, "NMDA receptor": {"test_system": "NMDA receptor", "conditions": "in vitro; cited from earlier work"}}}
{"compound": "CC12CC3CC(C)(C1)CC(N)(C3)C2.Cl", "note": "[MMT, 1-amino-3,5-dimethyladamantane hydrochloride]", "values": [{"measurement": "protective effect against LPS-induced dopaminergic neurotoxicity", "setting": "DA neurons [1]", "result": "not found in depletion of microglia"}, {"measurement": "GDNF protein level vs vehicle-treated control", "setting": "GDNF; 6 h", "result": "significantly increased level"}, {"measurement": "GDNF protein level vs vehicle-treated control", "setting": "GDNF; 12 h", "result": "peaked"}, {"measurement": "GDNF protein level vs vehicle-treated control", "setting": "GDNF; 24 h", "result": "still expressed"}, {"measurement": "release of TNF-α", "setting": "TNF-α", "result": "reduced"}, {"measurement": "proliferation of astrocyte and microglia compared with control", "setting": "astrocyte, and micrglia", "result": "does not induce more proliferation"}, {"measurement": "neurotrophic effect on DA neurons", "setting": "DA neurons [2]; 10% of microglia added back to neuron-enriched cultures", "result": "not microglia-added cultures"}, {"measurement": "neurotrophic effect on DA neurons", "setting": "DA neurons [2]; microglia-depleted neuron/glia culture", "result": "neurotrophic in microglia-depleted neuron/glia culture"}, {"measurement": "neurotrophic effect on DA neurons", "setting": "DA neurons [2]; neuron-enriched cultures", "result": "failed to show any protective effect"}, {"measurement": "concentration of memantine on NMDA receptor blocking", "setting": "NMDA receptor", "result": "about 10 μM"}]}
